# According to patent US20230130103A1, “TARGETED PHARMACOLOGICAL THERAPEUTICS IN UVEAL MELANOMA” (Washington University, priority 2017, published 2023):
# Starred links: 1 amine or outer side, 2 acyl side, 3 side chain; linkers in the order of their positions; H or OH if unused. Positions of bridges follow the written chain, without caps; N, C: chain ends. Non-standard residues stand in square brackets, D forms with d. Residues, ends and D or L forms follow the SMILES beside them. *: point of attachment. Leu(3R-OH,Nα-propionyl) = CCC(=O)N[C@H](C(=O)*)[C@H](O)C(C)C; X1 = CC(C)[C@@H](O[*:3])[C@H](N[*:1])C(=O)[*:2]; X2 = CC(C)[C@H](O[*:3])[C@@H](N[*:1])C(=O)[*:2]; NMeaThr = CN[C@H](C(=O)O)[C@H](C)O; dPhLac = O=C(O)[C@H](O)Cc1ccccc1; NMeA = CN[C@@H](C)C(=O)O; NMeDha = C=C(NC)C(=O)O
# System: 92.1 UM cells
# Experiment: Gene Set Enrichment Analysis (GSEA) of RNA-Seq data
# Format: cell-based, Human
# [1] = gene set REACTOME_ADAPTIVE_IMMUNE_SYSTEM
# [2] = gene set REACTOME_APC_C_CDC20_MEDIATED_DEGRADATION_OF_MITOTIC_PROTEINS
# [3] = gene set REACTOME_APC_C_CDH1_MEDIATED_DEGRADATION_OF_CDC20_AND_OTHER_APC_C_CDH1_TARGETED_PROTEINS_IN_LATE_MITOSIS_EARLY_G1
# [4] = gene set REACTOME_B[?]_INFECTION
# [5] = gene set REACTOME_CHOLESTEROL_BIOSYNTHESIS
# [6] = gene set REACTOME_DOUBLE_STRAND_BREAK_REPAIR
# [7] = gene set REACTOME_E2F_MEDIATED_REGULATION_OF_DNA_REPLICATION
# [8] = gene set REACTOME_EXTENSION_OF_TELOMERES
# [9] = gene set REACTOME_FACTORS_INVOLVED_IN_MEGAKARYOCYTE_DEVELOPMENT_AND_PLATELET_PRODUCTION
# [10] = gene set REACTOME_G0_AND_EARLY_G1
# [11] = gene set REACTOME_HOST_INTERACTIONS_HIV_FACTORS
# [12] = gene set REACTOME_LICAM_INTERACTIONS
# [13] = gene set REACTOME_METABOLISM_OF_NON_CODING_RNA
# [14] = gene set REACTOME_PREFOLDIN_MEDIATED_TRANSFER_OF_SUBSTRATE_TO_CCT_TRIC
# [15] = gene set REACTOME_TRANSPORT_OF_MATURE_MRNA_DERIVED_FROM_AN_INTRONLESS_TRANSCRIPT
# [16] = gene set REACTOME_[?]_REMOVAL_FROM_CHROMATIN
# [17] = gene set REACTOM_GLUCONE_TRANSPORT
# [18] = gene set RMEIN_GLUCOCORTICOID_THERAPY_DN
# [19] = gene set SAKAL_CHRONIC_HEPATITIS_VS_LIVER_CANCER_UP
# [20] = gene set SASAKI_ADULT_T_CELL_LEUKEMIA
# [21] = gene set SASSON_RESPONSE_TO_FORSKOLIN_UP
# [22] = gene set SASSON_RESPONSE_TO_GONADOTRPHINS_UP
# [23] = gene set SCHMIDT_FOR_TARGETS_IN_LIMB_BUD_UP
# [24] = gene set SCIBETTA_KDMS8_TARGETS_DN
# [25] = gene set SENESE_HDAC1_TARGETS_UP
# [26] = gene set SENESE_HDAC2_TARGETS_UP
# [27] = gene set SHEPARD_CRUSH_AND_BURN_MUTANT_DN
# [28] = gene set SMIRNOV_RESPONSE_TO_IR_6HR_DN
# [29] = gene set WAKASUGI_HAVE_ZNF143_BINDING_SITES
# [30] = gene set WELSCH_BRCA1_TARGETS_DN
# [31] = gene set WHITFIELD_CELL_CYCLE_5
# [32] = gene set WHITFIELD_CELL_CYCLE_M_G2
# [33] = gene set [?]_APOPTOSIS_BY_REOVIRUS_INFECTION_DN
# [34] = gene set [?]_E2F3_ONCOGENIC_SIGNATURE
# [35] = gene set [?]_ESTRADIOL_RESPONSE_6HR_UP
# [36] = gene set [?]_HYPOXIA_NOT_VIA_[?]
# [37] = gene set [?]_OVARIAN_CANCER_INVAVSIVE_VS_LMP_UP
# [38] = gene set [?]_PSEUDOPODIA_HAPTOTAXIS_DN
# [39] = gene set […]_NEUTROPHIL_AT_SKIN_WOUND_DN
# [40] = gene set mARTORIATE_MDM4_TARGETS_FETAL_LIVER_DN
smiles,measurement,setting,value
"C=C1C(=O)N[C@@H](C)C(=O)N(C)[C@@H](C)C(=O)N[C@H]([C@@H](OC(=O)[C@@H](NC(=O)CC)[C@H](O)C(C)C)C(C)C)C(=O)N(C)[C@@H]([C@H](C)OC)C(=O)O[C@H](C(C)C)[C@H](NC(C)=O)C(=O)O[C@H](Cc2ccccc2)C(=O)N1C [FR, [(1S)-1-[(3S,6R,9S,12S,18R,21S,22R)-21-acetamido-18-benzyl-3-[(1S)-1-methoxyethyl]-4,9,10,12,16-pentamethyl-15-methylidene-2,5,8,11,14,17,20-heptaoxo-22-propan-2-yl-1,19-dioxa-4,7,10,13,16-pentazacyclodocos-6-yl]-2-methylpropyl] (2S,3R)-3-hydroxy-4-methyl-2-(propanoylamino)pentanoate] (Ac-[X1][dPhLac][NMeDha]A[NMeA][X2](Leu(3R-OH,Nα-propionyl))[NMeaThr](Me); ester 1-C)",ES,[1],0.3979
same,NES,[1],2.13
same,ES,[2],0.5518
same,NES,[2],2.142
same,ES,[3],0.56
same,NES,[3],2.187
same,ES,[4],0.4639
same,NES,[4],2.188
same,ES,[5],0.6781
same,NES,[5],2.138
same,ES,gene set REACTOME_DNA_REPAIR,0.4835
same,NES,gene set REACTOME_DNA_REPAIR,2.1
same,ES,[6],0.6821
same,NES,[6],2.156
same,ES,[7],0.5585
same,NES,[7],2.256
same,ES,[8],0.6128
same,NES,[8],2.062
same,ES,[9],0.4943
same,NES,[9],2.346
same,ES,[10],0.5589
same,NES,[10],2.109
same,ES,[11],0.4871
same,NES,[11],2.139
same,ES,[12],0.4901
same,NES,[12],2.064
same,ES,[13],0.5725
same,NES,[13],2.142
same,ES,gene set REACTOME_NEP_NS2_INTERACTS_WITH_THE_CELLULAR_EXPORT_MACHINERY,0.6472
same,ES,[14],0.6276
same,NES,[14],2.059
same,ES,[15],0.6258
same,NES,[15],2.187
same,ES,[16],0.5346
same,NES,[16],2.104
same,ES,[17],0.6343
same,NES,[17],2.211
same,NES,gene set REN_ALVEOLAR_RHABDOMYOSARCOMA_DN,2.084
same,ES,[18],0.429
same,NES,[18],2.253
same,ES,[19],0.4953
same,NES,[19],2.051
same,ES,[20],0.4693
same,NES,[20],2.213
same,ES,[21],0.4936
same,NES,[21],2.087
same,ES,[22],0.5309
same,NES,[22],2.23
same,ES,[23],0.6919
same,NES,[23],2.232
same,ES,[24],0.4986
same,NES,[24],2.107
same,ES,[25],0.4141
same,NES,[25],2.222
same,ES,[26],0.4933
same,NES,[26],2.179
same,ES,gene set SHEPARD_BMYB_TARGETS,0.5123
same,NES,gene set SHEPARD_BMYB_TARGETS,2.125
same,ES,[27],0.4366
same,NES,[27],2.055
same,NES,gene set SHIPP_D[?]CL_VS_FOLLICULAR_LYMPHOMA_UP,2.142
same,ES,[28],0.4874
same,NES,[28],2.135
same,ES,gene set SP1_Q4_01,0.4346
same,NES,gene set SP1_Q4_01,2.133
same,ES,gene set TBK1DF_DN,0.434
same,NES,gene set TBK1DF_DN,2.201
same,ES,[29],0.5464
same,NES,[29],2.135
same,ES,[30],0.4808
same,NES,[30],2.25
same,ES,[31],0.4808
same,NES,[31],2.252
same,ES,[32],0.4742
same,NES,[32],2.151
same,ES,gene set WINTER_HYPOXIA_UP,0.5079
same,NES,gene set WINTER_HYPOXIA_UP,2.091
same,ES,gene set [?]ENPORAIN_17513976.21_2,0.5458
same,ES,[33],0.4088
same,NES,[33],2.137
same,ES,[34],0.4474
same,NES,[34],2.256
same,ES,[35],0.4279
same,NES,[35],2.138
same,ES,[36],0.3777
same,NES,[36],2.125
same,ES,[37],0.4908
same,NES,[37],2.191
same,ES,[38],0.396
same,NES,[38],2.222
same,ES,gene set [?]_[?]1,0.4368
same,NES,gene set [?]_[?]1,2.127
same,ES,gene set [?]_[?]_Q6,0.372
same,NES,gene set [?]_[?]_Q6,2.07
same,ES,[39],0.4325
same,NES,[39],2.066
same,ES,[40],0.4046
same,NES,[40],2.198
